Source: patent US7135488B2, “Pyrrolyl-thiazole derivatives” (Hoffmann-La Roche Inc., priority 2003, dated 2006)

Test system: not given
Assay: not given
Settings: doses of 5, 10 and 20 mg daily; double blind placebo-controlled study; cited from earlier work

| Compound | body weight compared to placebo |
| --- | --- |
| Cc1c(C(=O)NN2CCCCC2)nn(-c2ccc(Cl)cc2Cl)c1-c1ccc(Cl)cc1 [SR 141716, Rimonabant] | significantly reduced body weight |

Target: T1, human cannabis CB1 receptor (Homo sapiens, UniProt P21554)
T1 construct: expressed in transfected cells; host or cells: human embryonic kidney (HEK) cells, Semliki Forest Virus system, membrane preparation
Assay: CB1 receptor affinity, [3H]-CP-55,940 radioligand binding on HEK cell membranes
Settings: not given
Procedure: The affinity of the compounds of the invention for cannabinoid CB1 receptors was determined using membrane preparations of human embryonic kidney (HEK) cells in which the human cannabis CB1 receptor is transiently transfected using the Semliki Forest Virus system in conjunction with [3H]-CP-55,940 as radioligand. After incubation of a freshly prepared cell membrane preparation with the [3H]-ligand, with or without addition of compounds of the invention, separation of bound and free ligand was performed by filtration over glassfiber filters. Radioactivity on the filter was measured by liquid scintillation counting.

T1 sequence (P21554 whole entry): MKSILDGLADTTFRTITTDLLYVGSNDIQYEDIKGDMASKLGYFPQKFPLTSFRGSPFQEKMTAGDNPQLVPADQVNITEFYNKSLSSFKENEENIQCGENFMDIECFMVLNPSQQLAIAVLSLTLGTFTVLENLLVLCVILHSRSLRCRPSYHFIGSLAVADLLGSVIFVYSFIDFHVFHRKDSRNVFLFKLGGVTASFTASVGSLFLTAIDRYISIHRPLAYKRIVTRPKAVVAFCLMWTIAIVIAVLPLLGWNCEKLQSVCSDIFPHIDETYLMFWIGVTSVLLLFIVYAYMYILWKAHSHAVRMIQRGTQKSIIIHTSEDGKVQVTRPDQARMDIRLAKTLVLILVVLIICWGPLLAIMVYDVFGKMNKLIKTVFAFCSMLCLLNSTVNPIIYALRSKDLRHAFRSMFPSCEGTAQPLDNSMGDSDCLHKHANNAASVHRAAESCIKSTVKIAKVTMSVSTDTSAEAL

| Compound | IC50 [µM] |
| --- | --- |
| COc1ccc(-c2nc(-c3cc(C(=O)NC4CCCCC4)c(C)n3CC3CCCCC3)cs2)cc1 [Example 356, Cyclohexylmethyl-5-[2-(4-methoxy-phenyl)-thiazol-4-yl]-2-methyl-1H-pyrrole-3-carboxylic acid cyclohexylamide] | < 2 |
| CCCCNC(=O)c1cc(-c2csc(C3CCCCC3)n2)n(CC2CCCCC2)c1C [Example 375, Cyclohexylmethyl-5-(2-cyclohexyl-thiazol-4-yl)-2-methyl-1H-pyrrole-3-carboxylic acid butylamide] | < 2 |
| COc1ccc(-c2nc(-c3cc(C(=O)Nc4ncccn4)c(C)n3CC3CCCCC3)cs2)cc1 [Example 324, Cyclohexylmethyl-5-[2-(4-methoxy-phenyl)-thiazol-4-yl]-2-methyl-1H-pyrrole-3-carboxylic acid pyrimidin-2-ylamide] | < 2 |
| CCCCNC(=O)c1cc(-c2csc(-c3ccc4c(c3)OCO4)n2)n(CC2CCCCC2)c1C [Example 340, 5-(2-Benzo[1,3]dioxol-5-yl-thiazol-4-yl)-1-cyclohexylmethyl-2-methyl-1H-pyrrole-3-carboxylic acid butylamide] | < 2 |
| CCCCNC(=O)c1cc(-c2csc(-c3ccc(OC)cc3)n2)n(Cc2ccccc2)c1C [Example 333, Benzyl-5-[2-(4-methoxy-phenyl)-thiazol-4-yl]-2-methyl-1H-pyrrole-3-carboxylic acid butylamide] | < 2 |
| COc1ccc(-c2nc(-c3cc(C(=O)NN4CCCCC4)c(C)n3CC3CCCCC3)cs2)cc1 [Example 299, Cyclohexylmethyl-5-[2-(4-methoxy-phenyl)-thiazol-4-yl]-2-methyl-1H-pyrrole-3-carboxylic acid piperidin-1-ylamide] | < 2 |
| CCCCNC(=O)c1cc(-c2csc(-c3ccc(OC)cc3)n2)n(CC2CCCCC2)c1C [Example 8, Cyclohexylmethyl-5-[2-(4-methoxy-phenyl)-thiazol-4-yl]-2-methyl-1H-pyrrole-3-carboxylic acid butylamide] | < 2 |
| COc1ccc(-c2nc(-c3cc(C(=O)NCc4ccccn4)c(C)n3CC3CCCCC3)cs2)cc1 [Example 305, Cyclohexylmethyl-5-[2-(4-methoxy-phenyl)-thiazol-4-yl]-2-methyl-1H-pyrrole-3-carboxylic acid (pyridin-2-ylmethyl)-amide] | < 2 |
| COc1ccc(-c2nc(-c3cc(C(=O)Nc4ccccc4)c(C)n3CC3CCCCC3)cs2)cc1 [Example 315, Cyclohexylmethyl-5-[2-(4-methoxy-phenyl)-thiazol-4-yl]-2-methyl-1H-pyrrole-3-carboxylic acid phenylamide] | < 2 |
| COc1ccc(-c2nc(-c3cc(C(=O)N4CCCCC4)c(C)n3CC3CCCCC3)cs2)cc1 [Example 311, {1-Cyclohexylmethyl-5-[2-(4-methoxy-phenyl)-thiazol-4-yl]-2-methyl-1H-pyrrol-3-yl}-piperidin-1-yl-methanone] | < 2 |

Same assay, conditions: membranes of HEK cells transiently transfected with human CB1 receptor; radioligand [3H]-CP-55,940; read-out: IC50 (affinity for the CB1 receptor)

| IC50 [µM] | Compound |
| --- | --- |
| < 2 | CCCCNC(=O)c1cc(-c2csc(-c3ccc(OC)cc3)n2)n(Cc2ccccn2)c1C [Example 371, 5-[2-(4-Methoxy-phenyl)-thiazol-4-yl]-2-methyl-1-pyridin-2-ylmethyl-1H-pyrrole-3-carboxylic acid butylamide] |

Test system: not given
Assay: not given
Settings: not given

| melting point [°C] | Compound |
| --- | --- |
| 184 to 187 | CCCCNC(=O)c1cc(-c2csc(-c3ccc([N+](=O)[O-])cc3)n2)n(CC2CCCCC2)c1C [Example 1, Cyclohexylmethyl-2-methyl-5-[2-(4-nitro-phenyl)-thiazol-4-yl]-1H-pyrrole-3-carboxylic acid butylamide] |
